Residues, ends and D or L forms follow the SMILES beside them.
Experiments:
S. typhimurium 8009 = assay: MIC at salt concentration (Example 3); format: cell-based, Salmonella typhimurium
Experimental: (§1) To compare the antimicrobial activity of the peptide produced by the method of Example 1, the inventors of the present invention measured the minimum growth inhibitory concentration (MIC), which is minimum concentration of the peptide showing no dissociation of bacterial cells, at salt concentration.
(§2) Specifically, the bacterial strain described in the above Table 2 was cultured in each medium to a mid-log phase. Then, after dilution to bacterial cell concentration of 2×10^5 cells/100 μl, the cells were inoculated to a microtiter plate (NUNC, USA). Thereafter, myxinidin 1, myxinidin 2, or myxinidin 3 peptides which have been synthesized in Example 1 above was diluted, 1/2 times for each, with BSA+150 mM sodium chloride (NaCl) solution, physiological saline (PBS) solution, or 10 mM sodium phosphate (SP) solution in a 96-well plate. After adding the cells to a plate, the cells were cultured for 12 hours at 37° C. By using a microtiter plate reader (Merck Elisa reader, Germany), the absorbance was measured at a wavelength of 600 nm to determine the MIC value of each bacterial strain. As a control group, myxinidin as a mother peptide was subjected to the same processes as above and the MIC value of each bacterial strain was obtained.

S. typhimurium = assay: MIC at salt concentration (Example 3); format: cell-based, Salmonella typhimurium
Experimental: as §1, §2

S. typhimurium 8013 = assay: MIC at salt concentration (Example 3); format: cell-based, Salmonella typhimurium
Experimental: as §1, §2

S. aureus = assay: MIC at salt concentration (Example 3); format: cell-based, Staphylococcus aureus
Experimental: as §1, §2

S. aureus 3709 = assay: MIC at salt concentration (Example 3); format: cell-based, Staphylococcus aureus
Experimental: as §1, §2

S. aureus 3114 = assay: MIC at salt concentration (Example 3); format: cell-based, Staphylococcus aureus
Experimental: as §1, §2

P. aeruginosa = assay: Anti-biofilm activity (crystal violet); format: cell-based, Pseudomonas aeruginosa
Experimental: To compare the antimicrobial activity of the peptide produced by the method of Example 1, the inventors of the present invention measured the biofilm inhibitory concentration value of the peptide showing no dissociation of bacterial cells.
Specifically, the Gram-negative bacteria and Gram-positive bacteria among the bacterial strains described in the above Table 2 were cultured in each medium to a mid-log phase. Then, after dilution to bacterial cell concentration of 5×10^5 cells/100 μl, the cells were inoculated to a microtiter plate (NUNC, USA). Thereafter, myxinidin 1, myxinidin 2, or myxinidin 3 peptides which have been synthesized in Example 1 above was diluted, 1/10 times for each, with physiological saline (PBS) solution in a 96-well plate. After adding the cells to a plate, the cells were cultured for 12 hours at 37° C. After removing the supernatant, the cells were fixed with 100% methanol and reacted for 2 hours with Crystal violet staining solution followed by rinsing for 3 times. Then, after dissolving in 95% ethanol, the absorbance was measured at a wavelength of 595 nm by using a microtiter plate reader (Merck Elisa reader, Germany) to determine the biofilm inhibitory concentration value of each bacterial strain. As a control group, myxinidin as a mother peptide was subjected to the same processes as above and the biofilm inhibitory concentration value of each bacterial strain was obtained.

[1] = system: Escherichia coli ATCC 25922; format: cell-based
[2] = system: Salmonella typhimurium CCARM 8009; format: cell-based
[3] = system: Pseudomonas aeruginosa Isolated strain 3592; format: cell-based
[4] = system: Staphylococcus aureus CCARM 3709; format: cell-based
[5] = system: Salmonella typhimurium KCTC 1926; format: cell-based
[6] = system: Staphylococcus aureus CCARM 3114; format: cell-based
[7] = system: Pseudomonas aeruginosa Isolated strain 5018; format: cell-based
[8] = system: Escherichia coli CCARM 1238; format: cell-based
[9] = system: Pseudomonas aeruginosa ATCC 27853; format: cell-based
[10] = system: Staphylococcus aureus ATCC 25923; format: cell-based
[11] = system: Listeria monocytogenes KCTC 3710; format: cell-based
[12] = NaCl (BSA+150 mM sodium chloride)

Row | Structure (SMILES) | Antimicrobial activity (MIC) according to salt concentration (S. typhimurium 8009; [12]) | Antimicrobial activity (MIC) according to salt concentration (S. typhimurium 8009; PBS) | Antimicrobial activity (MIC) according to salt concentration (S. typhimurium 8009; SP (10 mM sodium phosphate)) | Antimicrobial activity (MIC) according to salt concentration (S. typhimurium; [12]) | Antimicrobial activity (MIC) according to salt concentration (S. typhimurium; PBS) | Antimicrobial activity (MIC) according to salt concentration (S. typhimurium; SP (10 mM sodium phosphate)) | Antimicrobial activity (MIC) according to salt concentration (S. typhimurium 8013; [12]) | Antimicrobial activity (MIC) according to salt concentration (S. typhimurium 8013; PBS) | Antimicrobial activity (MIC) according to salt concentration (S. typhimurium 8013; SP (10 mM sodium phosphate)) | Antimicrobial activity (MIC) according to salt concentration (S. aureus; [12]) | Antimicrobial activity (MIC) according to salt concentration (S. aureus; PBS) | Antimicrobial activity (MIC) according to salt concentration (S. aureus; SP (10 mM sodium phosphate)) | Antimicrobial activity (MIC) according to salt concentration (S. aureus 3709; [12]) | Antimicrobial activity (MIC) according to salt concentration (S. aureus 3709; PBS) | Antimicrobial activity (MIC) according to salt concentration (S. aureus 3709; SP (10 mM sodium phosphate)) | Antimicrobial activity (MIC) according to salt concentration (S. aureus 3114; [12]) | Antimicrobial activity (MIC) according to salt concentration (S. aureus 3114; PBS) | Antimicrobial activity (MIC) according to salt concentration (S. aureus 3114; SP (10 mM sodium phosphate)) | Biofilm forming ability (P. aeruginosa; peptide 0.25 μM) [%] | Biofilm forming ability (P. aeruginosa; peptide 0.5 μM) [%] | further results
1 | CC[C@H](C)[C@H](NC(=O)CN)C(=O)N[C@@H](Cc1c[nH]cn1)C(=O)N[C@@H](Cc1c[nH]cn1)C(=O)N[C@H](C(=O)N[C@@H](CC(C)C)C(=O)N[C@@H](CCCCN)C(=O)N[C@@H](Cc1ccc(O)cc1)C(=O)NCC(=O)N[C@@H](CCCCN)C(=O)N1CCC[C@H]1C(=O)N[C@@H](CO)C(N)=O)[C@@H](C)CC [Myxinidin 1, GIHHILKYGKPS-NH2] (H-GIHHILKYGKPS-NH2; N-terminus assumed) | >32 | >32 | >32 | >32 | >32 | >32 | >32 | >32 | >32 | >32 | >32 | >32 | >32 | >32 | >32 | >32 | >32 | >32 | 100 | 100 | Biofilm forming ability (P. aeruginosa; peptide 1 μM): 94%; Biofilm forming ability (P. aeruginosa; peptide 2 μM): 93%; Biofilm forming ability (P. aeruginosa; peptide 4 μM): 92%; Biofilm forming ability (P. aeruginosa; peptide 8 μM): 92%; Biofilm forming ability (P. aeruginosa; peptide 16 μM): 89%; Biofilm forming ability (P. aeruginosa; peptide 32 μM): 88%; Minimum growth inhibitory concentration [1]: >32 µM; Minimum growth inhibitory concentration [2]: >32 µM; Minimum growth inhibitory concentration [3]: >32 µM; Minimum growth inhibitory concentration [4]: >32 µM; Minimum growth inhibitory concentration [5]: >32 µM; Minimum growth inhibitory concentration [6]: >32 µM; Minimum growth inhibitory concentration [7]: >32 µM; Minimum growth inhibitory concentration [8]: >32 µM; Minimum growth inhibitory concentration [9]: >32 µM; Minimum growth inhibitory concentration [10]: >32 µM; Minimum growth inhibitory concentration [11]: >32 µM
2 | CC[C@H](C)[C@H](NC(=O)[C@H](Cc1c[nH]c2ccccc12)NC(=O)[C@H](CCCCN)NC(=O)[C@@H](NC(=O)[C@@H](N)CCCCN)[C@@H](C)CC)C(=O)N[C@@H](CC(C)C)C(=O)N[C@@H](CCCCN)C(=O)N[C@@H](Cc1ccc(O)cc1)C(=O)N[C@@H](Cc1c[nH]c2ccccc12)C(=O)N[C@@H](CCCCN)C(=O)N[C@@H](Cc1c[nH]c2ccccc12)C(=O)N[C@@H](CO)C(N)=O [Myxinidin 2, KIKWILKYWKWS-NH2] (H-KIKWILKYWKWS-NH2; N-terminus assumed) | 8 | 4 | 4 | 2 | 4 | 2 | 32 | 8 | 4 | 0.25 | 1 | 1 | 8 | 8 | 4 | >32 | 16 | 8 | 100 | 98 | Biofilm forming ability (P. aeruginosa; peptide 1 μM): 95%; Biofilm forming ability (P. aeruginosa; peptide 2 μM): 83%; Biofilm forming ability (P. aeruginosa; peptide 4 μM): 29%; Biofilm forming ability (P. aeruginosa; peptide 8 μM): 13%; Biofilm forming ability (P. aeruginosa; peptide 16 μM): 5%; Biofilm forming ability (P. aeruginosa; peptide 32 μM): 5%; Minimum growth inhibitory concentration [1]: 1 µM; Minimum growth inhibitory concentration [2]: 8 µM; Minimum growth inhibitory concentration [3]: 8 µM; Minimum growth inhibitory concentration [4]: 2 µM; Minimum growth inhibitory concentration [5]: 2 µM; Minimum growth inhibitory concentration [6]: 32 µM; Minimum growth inhibitory concentration [7]: 4 µM; Minimum growth inhibitory concentration [8]: 4 µM; Minimum growth inhibitory concentration [9]: 4 µM; Minimum growth inhibitory concentration [10]: 0.25 µM; Minimum growth inhibitory concentration [11]: 4 µM
